# Literature values as cited in patent US20220249978A1, “NOVEL SOLVENT FOR EXTRACTING, SOLUBILISING AND/OR FORMULATING VOLATILE AND NON-VOLATILE COMPOUNDS OF INTEREST IN ANIMAL NUTRITION AND HEALTH, PREPARATION METHOD AND USES THEREOF” (ID4TECH, priority 2019, published 2022).
# Columns and labels:
# Bacillus anthracis = settings: blocks its growth without killing the cells
# [1] = test system: pro-inflammatory cytokines (IL-8 and TNF-α)
# Candida strains = settings: in vitro and in vivo
# [2] = test system: Gram+ but also Gram− bacteria such as Staphylococcus, Streptococcus, Gardnerella, Haemophilus but also Listeria monocytogenes
smiles,measurement,setting,value
CCCCCCCCCCCC(=O)OCC(O)CO (stereo not shown) [glycerol monolaurate],action against Bacillus anthracis,Bacillus anthracis,bacteriostatic agent
same,quantity of pro-inflammatory cytokines (IL-8 and TNF-α),[1],significant decrease
same,growth of Candida strains,Candida strains,inhibits the growth
same,growth of Gram+ and Gram− bacteria,[2],acts against the growth
